Literature values, collected in patent US20090226522A1, “PROCESS TO MINIMIZE POLYMORPHISM” (priority 2008, published 2009).
Like-named read-outs stand apart in the source and are kept apart here.

In the case of `Cc1nnc2n1-c1ccc(Cl)cc1C(c1ccccc1)=NC2` [Alprazolam, 8-chloro-1-methyl-6-phenyl-4H-s-triazolo[4,3-α][1,4]benzodiazepine], the “solubility in methanol or ethanol” value (methanol or ethanol) is given as “soluble”, the solubility in water (water) is given as “poorly soluble” and the solubility in water (water at physiological pH) is given as “no appreciable solubility”.
